Results taken from patent US20240287094A1, “NITROGEN-CONTAINING HETEROCYCLIC COMPOUND, PREPARATION METHOD THEREFOR, AND APPLICATION THEREOF IN MEDICINES” (Jiangsu Hengrui Pharmaceuticals Co., Ltd., priority 2021, published 2024).

Key:
Assay in all cases: Cell proliferation assay (CellTiter-Glo, intracellular ATP content)
Type in all cases: cell-based
DLD1^BRCA2−/− cells = conditions: 144 h; inhibition of proliferation, human BRCA2 gene knock-out colon cancer cells, 6 days incubation
Source text: (§1) The following method evaluates the inhibitory effect of the compounds of the present disclosure on the proliferation of DLD1, DLD1^BRCA2−/−, and MDA-MB-436 cells via IC50 by measuring the intracellular ATP content. The experimental method was briefly described as follows: • I. Experimental materials and instruments • 1. DLD1, human colon cancer cells (Cobioer, Nanjing, CBP60037) • 2. DLD1^BRCa2−/−, human BRCA2 gene knock-out colon cancer cells (Creative biogene, CSC-RT0015) • 3. MDA-MB-436, human breast cancer cells (ATCC, HTB-130) • 4. Fetal bovine serum (GIBCO, 10091-148) • 5. CellTite-Glo reagent (Promega, G^7573) • 6. 96-well cell culture plate (corning, 3903) • 7. Pancreatin (invitrogen, 25200-072) • 8. Microplate reader (BMG, PHERAsta) • 9. Cell counter (Countstar, Shanghai, IC1000) • II. Experimental procedures • DLD1 cells were cultured in an RPMI-1640 medium containing 10% FBS, and passaged 2-3 times a week in a passage ratio of 1:6 or 1:8. During passage, the cells were digested by pancreatin, transferred to a centrifuge tube, and centrifuged for 3 min at 1200 rpm. The supernatant was discarded, and a fresh medium was added to resuspend the cells. To a 96-well cell culture plate, 180 μL of the cell suspension was added at a density of 2.78×10^3 cells/mL. To peripheral wells of the 96-well plate, only 180 μL of complete medium was added.
(§2) DLD1^BRCA2−/− cells were cultured in an RPMI-1640 medium containing 10% FBS, and passaged 2-3 times a week in a passage ratio of 1:6 or 1:8. During passage, the cells were digested by pancreatin, transferred to a centrifuge tube, and centrifuged for 3 min at 1200 rpm. The supernatant was discarded, and a fresh medium was added to resuspend the cells. To a 96-well cell culture plate, 180 μL of the cell suspension was added at a density of 8.34×10^3 cells/mL. To peripheral wells of the 96-well plate, only 180 μL of complete medium was added.
(§3) The culture plate was incubated in an incubator for 24 h (37° C., 5% CO2).
(§4) The test samples were diluted to 2 mM in DMSO and serially 3-fold diluted to the 10th concentration. Blank and control wells were set. 5 μL of the serially diluted test compound solutions was added to 95 μL of fresh medium. 20 μL of the medium solution containing the compound described above was added to the plate. The plate was incubated in an incubator (37° C., 5% CO2) for 6 days. 90 μL of CellTiter-Glo reagent was added to each well of the 96-well cell culture plate. The plate was let stand for 5-10 min in the dark at room temperature. The chemiluminescence signals were read by a PHERAstar system, and the data were processed by GraphPad software.

DLD1 cells = conditions: DLD-1, 144 h; inhibition of proliferation, human colon cancer cells, 6 days incubation
Source text: as §1, §3, §4

MDA-MB-436 cells = conditions: MDA-MB-436, 144 h; inhibition of proliferation, human breast cancer cells, 6 days incubation
Source text: as §1
as §2, with “MDA-MB-436” for “DLD1^BRCA2−/−”, “a Leibovitz's L-15” for “an RPMI-1640”, “FBS, 10 μg/mL insulin, and 16 µg/mL glutathione,” for “FBS,”, “1:3” for “1:6”, “1:5.” for “1:8.”
as §3, §4

Row | Compound | IC50 (DLD1^BRCA2−/− cells) | IC50 (DLD1 cells) | IC50 (MDA-MB-436 cells)
1 | CCc1cc2ncc(CN3CCN4c5ccc(C(=O)NC)nc5COC[C@H]4C3)cc2[nH]c1=O [Example 8, (R)-3-((7-Ethyl-6-oxo-5,6-dihydro-1,5-naphthyridin-3-yl)methyl)-N-methyl-1,2,3,4,4a,5-hexahydro-7H-pyrazino[2,1-c]pyrido[3,2-e][1,4]oxazepine-9-carboxamide] | 7.84 nM | > 1000 nM | 1.2 nM
2 | CCc1cc2ncc(CN3CCN4c5ccc(C(=O)NC)nc5NCC4C3)cc2[nH]c1=O (racemic) [Example 6, (±)-3-((7-Ethyl-6-oxo-5,6-dihydro-1,5-naphthyridin-3-yl)methyl)-N-methyl-2,3,4,4a,5,6-hexahydro-1H-pyrazino[1,2-a]pyrido[2,3-e]pyrazine-8-carboxamide] | – | > 1000 nM | 41.8 nM

Results, then the molecule that gave them:

Row | IC50 (DLD1^BRCA2−/− cells) | IC50 (DLD1 cells) | IC50 (MDA-MB-436 cells) | Compound
3 | 2.5 nM | > 250 nM | 1 nM | CCc1cc2ncc(CN3CCN4c5ccc(C(=O)NC)nc5OC[C@H]4C3)cc2[nH]c1=O [Example 2, (R)-3-((7-Ethyl-6-oxo-5,6-dihydro-1,5-naphthyridin-3-yl)methyl)-N-methyl-1,2,3,4,4a,5-hexahydropyrazino[1,2-d]pyrido[2,3-b][1,4]oxazine-8-carboxamide]
4 | 7.9 nM | > 1000 nM | 5.8 nM | CCc1cc2ncc(CN3CCN4c5ccc(C(=O)NC)nc5OCC4C3)cc2[nH]c1=O (racemic) [Example 1, (±)-3-((7-Ethyl-6-oxo-5,6-dihydro-1,5-naphthyridin-3-yl)methyl)-N-methyl-1,2,3,4,4a,5-hexahydropyrazino[1,2-d]pyrido[2,3-b][1,4]oxazine-8-carboxamide]
5 | – | > 1000 nM | 18.7 nM | CCc1cc2ncc(CN3CCN4c5ccc(C(=O)NC)nc5N(C)CC4C3)cc2[nH]c1=O (racemic) [Example 7, (±)-3-((7-Ethyl-6-oxo-5,6-dihydro-1,5-naphthyridin-3-yl)methyl)-N,6-dimethyl-2,3,4,4a,5,6-hexahydro-1H-pyrazino[1,2-a]pyrido[2,3-e]pyrazine-8-carboxamide]
6 | 5.8 nM | > 250 nM | 1.1 nM | CCc1cc2ncc(CN3CCN4c5ccc(C(=O)NC)nc5COCC4C3)cc2[nH]c1=O (racemic) [Example 3, (±)-3-((7-Ethyl-6-oxo-5,6-dihydro-1,5-naphthyridin-3-yl)methyl)-N-methyl-1,2,3,4,4a,5-hexahydro-7H-pyrazino[2,1-c]pyrido[3,2-e][1,4]oxazepine-9-carboxamide]
